Measurements from ChEMBL document CHEMBL3868599, “Strategy for designing selective α-l-rhamnosidase inhibitors: Synthesis and biological evaluation of l-DMDP cyclic isothioureas” (Bioorg Med Chem, 2017).
One block for each molecule: values may come before it.

Experiments:
[1] = Inhibition of Penicillium decumbens alpha-L-rhamnosidase
[2] = Inhibition of Penicillium decumbens alpha-L-rhamnosidase using p-nitrophenyl-glycoside as substrate by spectrophotometric method
Oryza sativa [3] = assay: Inhibition of rice alpha-glucosidase at 100 uM using p-nitrophenyl-glycoside as substrate by spectrophotometric method
Aspergillus niger [4] = assay: Inhibition of Aspergillus niger amyloglucosidase assessed as D-glucose level at 100 uM using maltose as substrate measured after 10 to 30 mins
Rattus norvegicus [5] = species on record: Rattus norvegicus; assay: Inhibition of rat intestinal maltase assessed as D-glucose level at 100 uM using maltose as substrate measured after 10 to 30 mins
[6] = target: T1, Uncharacterized protein (Sus scrofa) (UniProt I3LIR5); assay: Inhibition of porcine kidney trehalase assessed as D-glucose level at 100 uM using maltose as substrate measured after 10 to 30 mins
T1 sequence (whole entry): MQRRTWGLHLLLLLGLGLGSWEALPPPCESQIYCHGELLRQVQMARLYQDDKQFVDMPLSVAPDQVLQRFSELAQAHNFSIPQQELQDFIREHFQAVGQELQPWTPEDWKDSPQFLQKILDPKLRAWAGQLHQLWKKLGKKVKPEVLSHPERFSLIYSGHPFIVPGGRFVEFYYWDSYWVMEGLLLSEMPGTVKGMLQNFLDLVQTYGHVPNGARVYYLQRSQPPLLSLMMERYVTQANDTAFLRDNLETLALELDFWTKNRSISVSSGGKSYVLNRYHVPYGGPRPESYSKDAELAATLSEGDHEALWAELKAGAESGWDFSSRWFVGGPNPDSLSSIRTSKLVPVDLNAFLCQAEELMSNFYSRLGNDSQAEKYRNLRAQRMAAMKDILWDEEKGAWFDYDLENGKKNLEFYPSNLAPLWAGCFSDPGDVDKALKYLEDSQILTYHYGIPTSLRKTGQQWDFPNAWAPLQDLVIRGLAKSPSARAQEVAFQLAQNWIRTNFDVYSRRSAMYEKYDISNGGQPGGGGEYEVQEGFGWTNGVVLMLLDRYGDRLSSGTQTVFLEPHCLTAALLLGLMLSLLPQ

[7] = Inhibition of bovine liver beta-glucosidase using p-nitrophenyl-glycoside as substrate by spectrophotometric method; design: species or system Bos taurus
Prunus dulcis [8] = assay: Inhibition of almond beta-glucosidase at 100 uM using p-nitrophenyl-glycoside as substrate by spectrophotometric method
[9] = Inhibition of human lysosomal beta-glucosidase using 4-methylumbelliferyl-beta-D-glucopyranoside as substrate preincubated for 45 mins followed by substrate addition measured after 30 mins by fluorescence spectrophotometric method
[10] = target: T2, Tissue alpha-L-fucosidase (Bos taurus) (UniProt Q2KIM0); assay: Inhibition of bovine kidney alpha-L-fucosidase at 100 uM using p-nitrophenyl-glycoside as substrate by spectrophotometric method
T2 sequence (whole entry): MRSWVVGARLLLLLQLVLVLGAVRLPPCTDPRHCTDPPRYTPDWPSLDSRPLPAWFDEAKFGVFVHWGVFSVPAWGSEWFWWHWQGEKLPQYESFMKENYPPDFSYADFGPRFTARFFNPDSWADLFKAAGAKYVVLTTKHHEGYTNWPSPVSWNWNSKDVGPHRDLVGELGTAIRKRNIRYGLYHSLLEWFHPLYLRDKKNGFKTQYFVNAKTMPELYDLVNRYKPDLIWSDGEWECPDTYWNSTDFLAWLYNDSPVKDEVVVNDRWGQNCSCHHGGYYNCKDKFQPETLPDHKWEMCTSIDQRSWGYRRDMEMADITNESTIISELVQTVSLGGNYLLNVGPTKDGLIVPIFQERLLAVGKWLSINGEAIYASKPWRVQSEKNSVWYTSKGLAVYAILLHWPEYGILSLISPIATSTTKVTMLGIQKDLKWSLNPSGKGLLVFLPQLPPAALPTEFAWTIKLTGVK

Beta-galactosidase = target: T3, Beta-galactosidase (Bos taurus, UniProt Q58D55); assay: Inhibition of bovine liver beta-galactosidase using p-nitrophenyl-glycoside as substrate by spectrophotometric method
T3 sequence (Q58D55 whole entry): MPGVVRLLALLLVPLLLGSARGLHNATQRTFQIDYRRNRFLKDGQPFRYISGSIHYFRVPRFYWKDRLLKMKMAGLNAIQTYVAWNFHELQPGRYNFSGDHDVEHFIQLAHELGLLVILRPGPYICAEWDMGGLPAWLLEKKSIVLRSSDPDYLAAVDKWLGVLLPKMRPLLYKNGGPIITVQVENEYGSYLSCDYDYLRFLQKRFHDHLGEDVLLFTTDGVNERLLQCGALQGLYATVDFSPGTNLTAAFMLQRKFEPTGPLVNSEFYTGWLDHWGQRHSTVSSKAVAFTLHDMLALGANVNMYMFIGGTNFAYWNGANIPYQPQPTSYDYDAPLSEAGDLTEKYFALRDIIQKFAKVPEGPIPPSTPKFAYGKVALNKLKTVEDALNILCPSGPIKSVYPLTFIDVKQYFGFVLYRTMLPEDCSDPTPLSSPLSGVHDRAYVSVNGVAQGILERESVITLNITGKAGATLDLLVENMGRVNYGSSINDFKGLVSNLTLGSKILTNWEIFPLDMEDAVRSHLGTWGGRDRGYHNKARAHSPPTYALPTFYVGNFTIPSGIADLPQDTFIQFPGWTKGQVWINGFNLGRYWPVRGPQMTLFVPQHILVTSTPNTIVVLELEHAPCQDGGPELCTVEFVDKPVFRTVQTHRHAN

Escherichia coli [11] = assay: Inhibition of Escherichia coli beta-glucuronidase at 100 uM using p-nitrophenyl-glycoside as substrate by spectrophotometric method
Penicillium decumbens [12] = assay: Inhibition of Penicillium decumbens alpha-L-rhamnosidase at 100 uM using p-nitrophenyl-glycoside as substrate by spectrophotometric method
Homo sapiens [13] = species on record: Homo sapiens; assay: Inhibition of human lysosomal beta-glucosidase at 100 uM using 4-methylumbelliferyl-beta-D-glucopyranoside as substrate preincubated for 45 mins followed by substrate addition measured after 30 mins by fluorescence spectrophotometric method
Bos taurus = species on record: Bos taurus; assay: Inhibition of bovine liver beta-glucosidase at 1000 uM using p-nitrophenyl-glycoside as substrate by spectrophotometric method
[14] = target: T1, Uncharacterized protein (Sus scrofa); assay: Inhibition of porcine kidney trehalase assessed as D-glucose level at 1000 uM using maltose as substrate measured after 10 to 30 mins
Prunus dulcis [15] = assay: Inhibition of almond beta-glucosidase at 1000 uM using p-nitrophenyl-glycoside as substrate by spectrophotometric method
Rattus norvegicus [16] = species on record: Rattus norvegicus; assay: Inhibition of rat intestinal maltase assessed as D-glucose level at 1000 uM using maltose as substrate measured after 10 to 30 mins
Oryza sativa [17] = assay: Inhibition of rice alpha-glucosidase at 1000 uM using p-nitrophenyl-glycoside as substrate by spectrophotometric method
[18] = target: T2, Tissue alpha-L-fucosidase (Bos taurus); assay: Inhibition of bovine kidney alpha-L-fucosidase at 1000 uM using p-nitrophenyl-glycoside as substrate by spectrophotometric method
Escherichia coli [19] = assay: Inhibition of Escherichia coli beta-glucuronidase at 1000 uM using p-nitrophenyl-glycoside as substrate by spectrophotometric method
Aspergillus niger [20] = assay: Inhibition of Aspergillus niger amyloglucosidase assessed as D-glucose level at 1000 uM using maltose as substrate measured after 10 to 30 mins
Penicillium decumbens [21] = assay: Inhibition of Penicillium decumbens alpha-L-rhamnosidase at 1000 uM using p-nitrophenyl-glycoside as substrate by spectrophotometric method
[22] = target: T4, Beta-galactosidase (Bos taurus) (UniProt Q58D55); assay: Inhibition of bovine liver beta-galactosidase at 1000 uM using p-nitrophenyl-glycoside as substrate by spectrophotometric method
T4 sequence (whole entry): T3 sequence (Q58D55 whole entry)

Homo sapiens [23] = species on record: Homo sapiens; assay: Inhibition of human lysosomal beta-glucosidase at 1000 uM using 4-methylumbelliferyl-beta-D-glucopyranoside as substrate preincubated for 45 mins followed by substrate addition measured after 30 mins by fluorescence spectrophotometric method

Compound: COc1ccc(C/N=C2/SC[C@H]3[C@H](O)[C@@H](O)[C@H](CO)N23)cc1
IC50 [2]: 1.6 µM

Compound: CCCCCCCCCCCC/N=C1/SC[C@H]2[C@H](O)[C@@H](O)[C@H](CO)N12
inhibition (Oryza sativa [3]): < 50%
inhibition (Aspergillus niger [4]): < 50%
IC50 [2]: 0.46 µM
inhibition (Rattus norvegicus [5]): < 50%
inhibition [6]: < 50%
IC50 [7]: 9.5 µM
inhibition (Homo sapiens [13]): < 50%
inhibition (Prunus dulcis [8]): < 50%
inhibition [10]: < 50%
IC50 (Beta-galactosidase): 11 µM
inhibition (Escherichia coli [11]): < 50%

Compound: CCCC/N=C1/SC[C@@H]2[C@@H](O)[C@H](O)[C@@H](CO)N12
inhibition (Bos taurus): < 50%
inhibition [14]: < 50%
inhibition (Prunus dulcis [15]): < 50%
inhibition (Rattus norvegicus [16]): < 50%
IC50 [9]: 532 µM
inhibition (Oryza sativa [17]): < 50%
inhibition [18]: < 50%
inhibition (Escherichia coli [19]): < 50%
inhibition (Aspergillus niger [20]): < 50%
inhibition (Penicillium decumbens [21]): < 50%
inhibition [22]: < 50%

Compound: OC[C@@H]1[C@H](O)[C@@H](O)[C@@H]2CCCCN12
IC50 [1]: 3.3 µM

Compound: CCCCCCCCCCCC/N=C1/SC[C@@H]2[C@@H](O)[C@H](O)[C@@H](CO)N12
inhibition (Oryza sativa [3]): < 50%
inhibition (Aspergillus niger [4]): < 50%
IC50 [2]: 67 µM
inhibition (Rattus norvegicus [5]): < 50%
inhibition [6]: < 50%
IC50 [7]: 63 µM
inhibition (Prunus dulcis [8]): < 50%
IC50 [9]: 1 µM
inhibition [10]: < 50%
IC50 (Beta-galactosidase): 32 µM
inhibition (Escherichia coli [11]): < 50%

Compound: OC[C@H]1[C@H](O)[C@@H](O)[C@@H]2CS/C(=N/Cc3cccc(Cl)c3)N12
IC50 [2]: 0.7 µM

Continued, values first:

IC50 [1]: 850 µM
Compound: C[C@H]1N[C@@H](CO)[C@H](O)[C@H](O)[C@H]1O

IC50 [2]: 2.5 µM
Compound: OC[C@H]1[C@H](O)[C@@H](O)[C@@H]2CS/C(=N/Cc3ccccc3Cl)N12

inhibition (Oryza sativa [3]): < 50%
inhibition (Aspergillus niger [4]): < 50%
inhibition (Rattus norvegicus [5]): < 50%
inhibition [6]: < 50%
IC50 [7]: 63 µM
inhibition (Prunus dulcis [8]): < 50%
IC50 [9]: 1 µM
inhibition [10]: < 50%
IC50 (Beta-galactosidase): 93 µM
inhibition (Escherichia coli [11]): < 50%
inhibition (Penicillium decumbens [12]): < 50%
Compound: CCCCCCCCCC/N=C1/SC[C@@H]2[C@@H](O)[C@H](O)[C@@H](CO)N12

IC50 [1]: 52.8 µM
Compound: OC[C@H](O)[C@@H]1NC[C@H](O)[C@@H]1O

IC50 [1]: 21 µM
Compound: OC[C@H]1[C@@H](O)[C@@H](O)CN1Cc1ccccc1

inhibition (Homo sapiens [23]): < 50%
inhibition (Bos taurus): < 50%
inhibition [14]: < 50%
inhibition (Prunus dulcis [15]): < 50%
inhibition (Rattus norvegicus [16]): < 50%
inhibition (Oryza sativa [17]): < 50%
inhibition [18]: < 50%
inhibition (Escherichia coli [19]): < 50%
inhibition (Aspergillus niger [20]): < 50%
inhibition (Penicillium decumbens [21]): < 50%
inhibition [22]: < 50%
Compound: CCCCNC(=S)N1[C@H](CO)[C@@H](O)[C@H](O)[C@H]1CO

IC50 [2]: 0.7 µM
Compound: OC[C@H]1[C@H](O)[C@@H](O)[C@@H]2CS/C(=N/Cc3cc(Cl)cc(Cl)c3)N12
